Assay results as given in patent US8445510B2, “Fused bicyclic kinase inhibitors” (OSI Pharmaceuticals, LLC, priority 2011, dated 2013).

Key:
[1] = biological target: T1, RON (Homo sapiens, UniProt Q04912); experiment: sfRON cell mechanistic assay (HeLa), phosphorylated RON ELISA; type: cell-based; conditions: HeLa cells transfected with sfRON; inhibition of phosphorylated RON; four hours incubation; at least duplicate experiments; read-out: sfRON mech IC50
T1 sequence (Q04912 913-1400): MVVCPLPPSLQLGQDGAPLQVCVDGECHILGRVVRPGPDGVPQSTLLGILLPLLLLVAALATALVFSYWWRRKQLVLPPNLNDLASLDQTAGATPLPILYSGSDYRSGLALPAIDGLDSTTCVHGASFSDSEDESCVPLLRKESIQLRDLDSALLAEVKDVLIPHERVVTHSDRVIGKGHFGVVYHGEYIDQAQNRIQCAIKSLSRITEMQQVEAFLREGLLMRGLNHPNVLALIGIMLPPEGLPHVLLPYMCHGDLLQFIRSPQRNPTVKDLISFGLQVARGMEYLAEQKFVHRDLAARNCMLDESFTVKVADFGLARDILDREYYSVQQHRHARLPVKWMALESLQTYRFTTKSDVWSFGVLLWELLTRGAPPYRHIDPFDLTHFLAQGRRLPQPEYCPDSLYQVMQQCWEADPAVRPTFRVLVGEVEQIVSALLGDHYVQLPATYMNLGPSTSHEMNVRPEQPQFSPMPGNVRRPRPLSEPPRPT
In short: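 HeLa cells transiently transfected with sfRON plasmid, then exposed 4 h at 37 °C to a 6-point compound series (typically 10 μM to 3 nM, 0.5% DMSO). Phospho-RON (pY1238/1239) in lysates measured by sandwich ELISA with luminescence. IC50 from 4-parameter fit of percent-of-DMSO-control data, at least duplicate runs.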

[2] = biological target: T2, Aurora B (Homo sapiens, UniProt Q96GD4); experiment: Aurora B cell mechanistic assay (HT-29), phospho-Histone H3 (Ser10) ELISA; type: cell-based; conditions: HT-29 cell line; inhibition of phospho-Histone H3 (Ser10); at least duplicate experiments (italicized if single experiment); read-out: Aurora B mech IC50
T2 construct: HT-29 cells grown in complete growth media
Method: The cellular activity of the compounds of the present invention against Aurora B may be determined by the following procedure. HT-29 cells grown in complete growth media (McCoy's 5A, 10% FCS, 1% L-glutamine) were plated into wells of a 96 well tissue culture plate (Falcon 3072) at a cell density of 4×10^4 cells/0.09 ml media/well. Cells were subsequently incubated overnight in a 5% CO2 humidified 37° C. incubator. The following day 10 μl of a 10× stock of test compound serially diluted in media was added to the cells and incubated for 1 h at 37° C. at which time Calyculin A (Cell Signaling #9902) was added at a concentration of 100 nM and cells incubated for an additional 30 minutes in a 5% CO2 humidified 37° C. incubator. Media was then aspirated and cells lysed using a Triton based lysis buffer. Lysates were transferred to a pre-coated anti-Histone H3 antibody coated plate supplied by Cell Signaling in their PathScan phospho-Histone H3 (Ser10) ELISA kit (#7155). After an overnight incubation with lysate the ELISA was continued following the manufacturer's instructions. Signal was measured on a Wallac Victor plate reader at 450 nm. DMSO control treated cells served as 100% signal and an Aurora B kinase inhibitor served as 100% inhibition. The percent inhibition of phospho-Histone H3 (Ser10) was expressed as % control. IC50 values were calculated from the percent control data using a standard four-parameter model.
The IC50 values of exemplary compounds of the present invention determined in a Aurora B cell mechanistic assay using the HT-29 cell line according to the procedures described herein in at least duplicate experiments are abbreviated as follows and are shown in Table 4: A, IC50≦0.05 μM; B, 0.05 μM<IC50≦0.2 μM; C, 0.2 μM<IC50≦1 μM; D, IC50>1 μM; ND, not determined. If only data from single experiments are available, the abbreviations are italicized. The Example # of Table 4 corresponds to the compound example number as illustrated in the Examples section.

T2 sequence (Q96GD4 whole entry): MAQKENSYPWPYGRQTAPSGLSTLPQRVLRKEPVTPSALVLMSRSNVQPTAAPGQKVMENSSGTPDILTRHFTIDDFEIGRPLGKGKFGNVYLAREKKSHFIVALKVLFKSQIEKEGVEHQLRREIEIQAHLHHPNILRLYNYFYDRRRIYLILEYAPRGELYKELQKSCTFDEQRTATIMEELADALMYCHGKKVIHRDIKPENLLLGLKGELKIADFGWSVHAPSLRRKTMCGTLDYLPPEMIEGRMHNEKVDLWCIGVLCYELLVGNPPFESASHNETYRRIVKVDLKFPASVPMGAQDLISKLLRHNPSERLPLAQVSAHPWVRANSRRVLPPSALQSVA

| IC50 [1] [µM] | IC50 [2] [µM] | SMILES |
| --- | --- | --- |
| 0.2 to 1 | > 1 | [2H]C([2H])([2H])[C@H](c1c(OC)ccc(F)c1Cl)c1c[nH]c2ncc(-c3cnn([C@H]4CC[C@H](O)CC4)c3C)cc12 [Example 111, trans-4-(4-{3-[(1S)-1-(2-Chloro-3-fluoro-6-methoxyphenyl)(2,2,2-^2H3)ethyl]-1H-pyrrolo[2,3-b]pyridin-5-yl}-5-methyl-1H-pyrazol-1-yl)cyclohexanol] |
| 0.2 to 1 | > 1 | COc1cc(OC)c(Cl)c([C@@H](C)c2c[nH]c3ncc(-c4cnn([C@H]5CC[C@H](O)CC5)c4C)cc23)c1Cl [Example 106, trans-4-(4-{3-[(1S)-1-(2,6-Dichloro-3,5-dimethoxyphenyl)ethyl]-1H-pyrrolo[2,3-b]pyridin-5-yl}-5-methyl-1H-pyrazol-1-yl)cyclohexanol] |
| ≤ 0.2 | – | C[C@H](c1c(OC(F)F)ccc(F)c1Cl)c1c[nH]c2ncc(-c3cnc([C@H]4CC[C@H](O)CC4)n3C)cc12 [Example 126, trans-4-[5-(3-{(1S)-1-[2-Chloro-6-(difluoromethoxy)-3-fluorophenyl]ethyl}-1H-pyrrolo[2,3-b]pyridin-5-yl)-1-methyl-1H-imidazol-2-yl]cyclohexanol] |
| ≤ 0.2 | – | COc1nn([C@H]2CC[C@H](O)CC2)cc1-c1cnc2[nH]cc([C@H](C)c3c(OC(F)F)ccc(F)c3Cl)c2c1 [Example 100, trans-4-[4-(3-{(1S)-1-[2-chloro-6-(difluoromethoxy)-3-fluorophenyl]ethyl}-1H-pyrrolo[2,3-b]pyridin-5-yl)-3-methoxy-1H-pyrazol-1-yl]cyclohexanol] |
| ≤ 0.2 | – | Cc1c(-c2cnc3[nH]cc([C@H](CF)c4c(OC(F)F)ccc(F)c4Cl)c3c2)cnn1[C@H]1CC[C@H](O)CC1 [Example 124, trans-4-[4-(3-{(1S)-1-[2-chloro-6-(difluoromethoxy)-3-fluorophenyl]-2-fluoroethyl}-1H-pyrrolo[2,3-b]pyridin-5-yl)-5-methyl-1H-pyrazol-1-yl]cyclohexanol] |
| 0.2 to 1 | – | COc1ccc(F)c(Cl)c1[C@@H](CF)c1c[nH]c2ncc(-c3cnn([C@H]4CC[C@H](O)CC4)c3C)cc12 [Example 121, trans-4-(4-{3-[(1S)-1-(2-Chloro-3-fluoro-6-methoxyphenyl)-2-fluoroethyl]-1H-pyrrolo[2,3-b]pyridin-5-yl}-5-methyl-1H-pyrazol-1-yl)cyclohexanol] |
| ≤ 0.2 | – | C[C@H](c1c(OC(F)F)ccc(F)c1Cl)c1c[nH]c2ncc(-c3cnc(N4CCC(O)CC4)n3C)cc12 [Example 125, 1-[5-(3-{(1S)-1-[2-Chloro-6-(difluoromethoxy)-3-fluorophenyl]ethyl}-1H-pyrrolo[2,3-b]pyridin-5-yl)-1-methyl-1H-imidazol-2-yl]piperidin-4-ol] |
| 0.2 to 1 | – | Cc1c(-c2cnc3[nH]cc([C@@H](CF)c4c(OC(F)F)ccc(F)c4Cl)c3c2)cnn1[C@H]1CC[C@H](O)CC1 [Example 123, trans-4-[4-(3-{(1R)-1-[2-chloro-6-(difluoromethoxy)-3-fluorophenyl]-2-fluoroethyl}-1H-pyrrolo[2,3-b]pyridin-5-yl)-5-methyl-1H-pyrazol-1-yl]cyclohexanol] |

The remaining lines, values behind:

| SMILES | IC50 [1] [µM] | IC50 [2] [µM] |
| --- | --- | --- |
| COc1ccc(F)c(Cl)c1[C@@H](C)c1c[nH]c2ncc(-c3cn(C)nc3C(N)=O)cc12 [Example 39, 4-{3-[(1S)-1-(2-Chloro-3-fluoro-6-methoxyphenyl)ethyl]-1H-pyrrolo[2,3-b]pyridin-5-yl}-1-methyl-1H-pyrazole-3-carboxamide] | > 1 | > 1 |
| COc1ccc(F)c(Cl)c1[C@@H](C)c1c[nH]c2ncc(-c3c(C)nn(C)c3C(N)=O)cc12 [Example 41, 4-{3-[(1S)-1-(2-Chloro-3-fluoro-6-methoxyphenyl)ethyl]-1H-pyrrolo[2,3-b]pyridin-5-yl}-1,3-dimethyl-1H-pyrazole-5-carboxamide] | > 1 | > 1 |
| COc1ccc(F)c(Cl)c1[C@@H](C)c1c[nH]c2ncc(-c3cnn(C)c3OC)cc12 [Example 62, 3-[(1S)-1-(2-chloro-3-fluoro-6-methoxyphenyl)ethyl]-5-(5-methoxy-1-methyl-1H-pyrazol-4-yl)-1H-pyrrolo[2,3-b]pyridine] | > 1 | > 1 |
| CNC(=O)[C@H]1CC[C@H](n2ncc(-c3cnc4[nH]cc([C@H](C)c5c(OC)ccc(F)c5Cl)c4c3)c2C)CC1 [Example 17, trans-4-(4-{3-[(1S)-1-(2-Chloro-3-fluoro-6-methoxyphenyl)ethyl]-1H-pyrrolo[2,3-b]pyridin-5-yl}-5-methyl-1H-pyrazol-1-yl)-N-methyl cyclohexanecarboxamide] | ≤ 0.2 | 0.2 to 1 |
| Cc1c(-c2cnc3[nH]cc([C@H](C)c4c(Cl)ccc(F)c4Cl)c3c2)cnn1[C@H]1CC[C@H](O)CC1 [Example 67, trans-4-(4-{3-[(1S)-1-(2,6-Dichloro-3-fluorophenyl)ethyl]-1H-pyrrolo[2,3-b]pyridin-5-yl}-5-methyl-1H-pyrazol-1-yl)cyclohexanol] | 0.2 to 1 | > 1 |
| COc1ccc(F)c(Cl)c1[C@@H](C)c1c[nH]c2ncc(-c3cnn([C@H]4CC[C@H](O)CC4)c3C)cc12 [Example 27, trans-4-(4-{3-[(1S)-1-(2-Chloro-3-fluoro-6-methoxyphenyl)ethyl]-1H-pyrrolo[2,3-b]pyridin-5-yl}-5-methyl-1H-pyrazol-1-yl)cyclohexanol] | 0.2 to 1 | > 1 |
| COc1ccc(F)c(Cl)c1[C@@H](C)c1c[nH]c2ncc(-c3cnn(C)c3CO)cc12 [Example 44, (4-{3-[(1S)-1-(2-Chloro-3-fluoro-6-methoxyphenyl)ethyl]-1H-pyrrolo[2,3-b]pyridin-5-yl}-1-methyl-1H-pyrazol-5-yl)methanol] | > 1 | > 1 |
| Cc1c(-c2cnc3[nH]cc([C@H](C)c4c(OC(F)F)ccc(F)c4Cl)c3c2)cnn1[C@@H]1C[C@@H](O)[C@@H](O)C1 [Example 75, (1R,2S,4S)-4-[4-(3-{(1S)-1-[2-Chloro-6-(difluoromethoxy)-3-fluoro-phenyl]ethyl}-1H-pyrrolo[2,3-b]pyridin-5-yl)-5-methyl-1H-pyrazol-1-yl]cyclopentane-1,2-diol] | ≤ 0.2 | 0.2 to 1 |
| CC(=O)N1CCC(n2ncc(-c3cnc4[nH]cc([C@H](C)c5c(OC(F)F)ccc(F)c5Cl)c4c3)c2C)CC1 [Example 97, 1-{4-[4-(3-{(1S)-1-[2-Chloro-6-(difluoromethoxy)-3-fluorophenyl]ethyl}-1H-pyrrolo[2,3-b]pyridin-5-yl)-5-methyl-1H-pyrazol-1-yl]piperidin-1-yl}ethanone] | ≤ 0.2 | – |
| COc1ccc(F)c(Cl)c1[C@@H](C)c1c[nH]c2ncc(-c3cn([C@H]4CC[C@H](O)CC4)nc3OC)cc12 [Example 99, trans-4-(4-{3-[(1S)-1-(2-chloro-3-fluoro-6-methoxyphenyl)ethyl]-1H-pyrrolo[2,3-b]pyridin-5-yl}-3-methoxy-1H-pyrazol-1-yl)cyclohexanol] | ≤ 0.2 | – |
| Cc1c(-c2cnc3[nH]cc([C@H](C)c4c(OC(F)F)ccc(F)c4Cl)c3c2)cnn1C1CCNCC1 [Example 96, 3-{(1S)-1-[2-Chloro-6-(difluoromethoxy)-3-fluorophenyl]ethyl}-5-[5-methyl-1-(piperidin-4-yl)-1H-pyrazol-4-yl]-1H-pyrrolo[2,3-b]pyridine] | ≤ 0.2 | – |
